Measurements from the NIST ThermoML archive (doi:10.1016/j.jct.2007.01.009).

Test: xn = mol fraction of the nth substance listed
Conditions: 101 kPa, Liquid, Pycnometric method

CCCCC(O)CO (stereo unspecified) [1,2-hexanediol] + O
mass density [kg/m3]
Conditions	283.15 K	288.15 K	293.15 K	298.15 K	303.15 K	308.15 K
x1 = 0.0009	999.77	999.33	998.26	997.06	995.65	993.92
x1 = 0.0018	999.85	999.35	998.28	997.06	995.66	993.92
x1 = 0.0036	1000.05	999.43	998.39	997.13	995.76	993.98
x1 = 0.0055	1000.31	999.57	998.54	997.24	995.78	994.13
x1 = 0.0077	1000.69	999.81	998.75	997.43	995.64	994.227
x1 = 0.009	1000.93	999.97	998.86	997.49	995.53	994.278
x1 = 0.0106	1001.22	1000.16	998.97	997.52	995.37	994.276
x1 = 0.0124	1001.49	1000.33	999.03	997.47	995.17	994.141
x1 = 0.0143	1001.65	1000.41	999.01	997.32	994.93	993.817
x1 = 0.016	1001.69	1000.38	998.91	997.13	994.7	993.395
x1 = 0.0178	1001.64	1000.25	998.73	996.87	994.45	992.869
x1 = 0.0351	999.52	997.75	995.76	993.77	991.54	988.24
x1 = 0.0672	995.27	993.06	990.72	988.37	985.8	981.847
x1 = 0.0968	991.84	989.37	986.7	983.93	981.37	977.569
x1 = 0.1119	990.47	987.91	985.24	982.11	979.56	975.746

CC(O)CCCCO (stereo unspecified) [1,5-hexanediol] + O
mass density [kg/m3]
Conditions	283.15 K	288.15 K	293.15 K	298.15 K	303.15 K	308.15 K
x1 = 0.001	999.62	999.01	998.08	996.9	995.49	993.87
x1 = 0.0021	999.54	998.92	997.97	996.78	995.34	993.69
x1 = 0.0037	999.45	998.83	997.87	996.64	995.17	993.47
x1 = 0.0053	999.39	998.77	997.8	996.54	995.05	993.32
x1 = 0.0071	999.38	998.74	997.74	996.46	994.97	993.19
x1 = 0.0089	999.41	998.73	997.7	996.4	994.91	993.09
x1 = 0.0111	999.49	998.75	997.68	996.36	994.86	992.99
x1 = 0.0145	999.68	998.84	997.7	996.34	994.79	992.85
x1 = 0.0194	1000.04	999.07	997.8	996.37	994.7	992.68
x1 = 0.0324	1001.21	999.91	998.22	996.47	994.45	992.23
x1 = 0.0507	1002.48	1000.63	998.55	996.31	994.04	991.47
x1 = 0.0738	1002.95	1000.72	998.24	995.66	993.05	990.3

OCCCCCCO [1,6-hexanediol] + O
mass density [kg/m3]
Conditions	283.15 K	288.15 K	293.15 K	298.15 K	303.15 K	308.15 K
x1 = 0.0009	999.67	999.02	998.12	996.93	995.54	993.92
x1 = 0.0019	999.65	998.96	998.04	996.83	995.42	993.78
x1 = 0.0037	999.63	998.86	997.92	996.68	995.24	993.57
x1 = 0.0054	999.64	998.8	997.84	996.58	995.11	993.41
x1 = 0.0074	999.66	998.78	997.78	996.49	994.99	993.24
x1 = 0.009	999.68	998.78	997.76	996.43	994.89	993.11
x1 = 0.0107	999.71	998.8	997.72	996.38	994.79	992.99
x1 = 0.0125	999.76	998.83	997.7	996.32	994.69	992.87
x1 = 0.0145	999.83	998.88	997.68	996.26	994.59	992.74
x1 = 0.0159	999.88	998.92	997.67	996.23	994.52	992.65
x1 = 0.0177	999.96	998.98	997.66	996.18	994.43	992.54
x1 = 0.0349	1000.78	999.42	997.56	995.67	993.61	991.57
x1 = 0.0514	1001.11	999.3	997.34	995.07	992.8	990.58
x1 = 0.0694	1001.08	998.88	996.87	994.3	991.84	989.39
x1 = 0.0983	1000.63	997.95	995.62	992.81	990.14	987.3
x1 = 0.112	1000.09	997.54	994.84	992.04	989.26	986.33

CC(O)CCC(C)O (stereo unspecified) [2,5-hexanediol] + O
mass density [kg/m3]
Conditions	283.15 K	288.15 K	293.15 K	298.15 K	303.15 K	308.15 K
x1 = 0.0008	999.67	999.06	998.13	996.94	995.52	993.87
x1 = 0.002	999.6	998.98	998.04	996.84	995.4	993.73
x1 = 0.0037	999.53	998.88	997.94	996.73	995.27	993.58
x1 = 0.0073	999.48	998.82	997.86	996.6	995.14	993.42
x1 = 0.009	999.54	998.85	997.84	996.58	995.09	993.35
x1 = 0.0102	999.61	998.88	997.84	996.58	995.07	993.31
x1 = 0.0123	999.75	998.97	997.89	996.6	995.05	993.25
x1 = 0.0142	999.92	999.08	997.96	996.64	995.05	993.21
x1 = 0.0159	1000.08	999.2	998.04	996.68	995.06	993.19
x1 = 0.0177	1000.27	999.34	998.14	996.74	995.07	993.17
x1 = 0.0263	1001.32	1000.14	998.73	997.13	995.23	993.17
x1 = 0.0353	1002.49	1001.07	999.39	997.56	995.43	993.19
x1 = 0.0516	1004.41	1002.55	1000.35	998.09	995.59	993
x1 = 0.0672	1005.71	1003.37	1000.75	998.16	995.35	992.44
x1 = 0.0688	1005.83	1003.42	1000.76	998.14	995.31	992.36
x1 = 0.0821	1006.35	1003.53	1000.63	997.8	994.75	991.62
x1 = 0.098	1006.33	1003.14	1000.02	996.97	993.8	990.55
x1 = 0.112	1005.71	1002.53	999.19	996.16	992.78	989.51
